Test results as given in patent publication US20250017906A1, “COMPOUNDS FOR USE IN TREATING GASTRIC CANCER” (BPGBio, Inc., priority 2021, published 2025).
Entries after “also recorded” stand apart in the source; their conditions may differ.

Assays:
HS746T tumors = experiment: Gastric carcinoma xenograft model: Hs 746T tumors in nude mice, tumor growth inhibition; type: in vivo; settings: for % Tumor Growth Inhibition (% TGI) / tumor growth inhibition, mixed effect linear model of the tumor volumes on the last day of study: HS746T xenograft
Protocol: Hs 746T cell line is a gastric carcinoma epithelial cell type from stomach that were isolated from the metastatic site of left leg muscle. Hs 746T cell lines were implanted subcutaneously in nude mice. Tumors were allowed to grow. Once the average tumor volume reached the volume of 120 mm3, animals were randomized into four groups of vehicle control, 75 mg/kg, 100 mg/kg, and 150 mg/kg 2-(difluoromethoxy)-N-[[5-(2-methoxyphenyl)-1H-1,2,4-triazol-3-yl]methyl]benzamide with 10 animals per group. Methocel E3 Premium LV with 2% labrasol in Milli-Q water was used for vehicle control. 2-(difluoromethoxy)-N-[[5-(2-methoxyphenyl)-1H-1,2,4-triazol-3-yl]methyl]benzamide was prepared prior to each dosing in 2% labrasol dissolved in Milli-Q water. 2-(difluoromethoxy)-N-[[5-(2-methoxyphenyl)-1H-1,2,4-triazol-3-yl]methyl]benzamide was administered by oral gavage two times a day (BID). In this study there were 10 animals per each group. […] The mean tumor volume of each group over time and the growth of tumor in each individual animal is plotted below. For each individual animal of vehicle group TGI % was calculated based on the tumor growth inhibition of individual tumor at each given day of the study compared to the average of the group for that given day of the study. The P value was calculated for each group that was treated with 2-(difluoromethoxy)-N-[[5-(2-methoxyphenyl)-1H-1,2,4-triazol-3-yl]methyl]benzamide for each given day of the study by comparing the TGI of that day to the TGI of the vehicle group. This P value is different than what is provided in the CRO report which is the P value related to tumor volume not TGI %. P value was calculated by excel program using two-tailed distribution and two-sample equal variance (homoscedastic). ns P>0.05; * P<0.05; ** P<0.01; *** P<0.001; **** P<0.0001.

[1] = Tolerability (body weight, survival) in SNU-5 xenograft study; type: in vivo; settings: oral BID, solid dispersion
Protocol: SNU-5 cell lines were implanted subcutaneously in nude mice. Tumors were allowed to grow. Once the average tumor volume reached the volume of 122 mm3, animals were randomized into three groups of vehicle control, 75 mg/kg and 150 mg/kg 2-(difluoromethoxy)-N-[[5-(2-methoxyphenyl)-1H-1,2,4-triazol-3-yl]methyl]benzamide with 12 animals per group. Methocel E3 Premium LV in Milli-Q water was used for vehicle control. A solid dispersion of 2-(difluoromethoxy)-N-[[5-(2-methoxyphenyl)-1H-1,2,4-triazol-3-yl]methyl]benzamide was prepared prior to each dosing in Milli-Q water. […] The percentage of tumor growth inhibition (TGI %) was calculated for each individual tumor. […] For each individual animal of vehicle group TGI % was calculated based on the tumor growth inhibition of individual tumor at each given day of the study compared to the average of the group for that given day of the study. The P value was calculated for each group that was treated with 2-(difluoromethoxy)-N-[[5-(2-methoxyphenyl)-1H-1,2,4-triazol-3-yl]methyl]benzamide for each given day of the study by comparing the TGI of that day to the TGI of the vehicle group. […] P value was calculated by excel program using two-tailed distribution and two-sample equal variance (homoscedastic). ns P>0.05; * P<0.05; ** P<0.01; *** P<0.001; **** P<0.0001.

[2] = test system: cyclin B1(CCNB1) and phospho histone H3(pHH3); experiment: Level of cyclin B1 and phospho histone H3 in HS746T xenograft tumors; type: in vivo, nude mice; settings: 75-150 mg/kg (FIG. 2)
[3] = test system: cyclin B1 and phosphor histone H3; experiment: Level of cyclin B1 and phospho histone H3 in SNU-5 xenograft tumors; type: in vivo, nude mice; settings: 75 and 150 mg/kg (FIG. 4)
[4] = Tolerability (body weight, survival) in HS746T xenograft study; type: in vivo; settings: HS746T xenograft, 75, 100 and 150 mg/kg oral BID, 15 days
Protocol: Hs 746T cell line is a gastric carcinoma epithelial cell type from stomach that were isolated from the metastatic site of left leg muscle. Hs 746T cell lines were implanted subcutaneously in nude mice. Tumors were allowed to grow. Once the average tumor volume reached the volume of 120 mm3, animals were randomized into four groups of vehicle control, 75 mg/kg, 100 mg/kg, and 150 mg/kg 2-(difluoromethoxy)-N-[[5-(2-methoxyphenyl)-1H-1,2,4-triazol-3-yl]methyl]benzamide with 10 animals per group. Methocel E3 Premium LV with 2% labrasol in Milli-Q water was used for vehicle control. 2-(difluoromethoxy)-N-[[5-(2-methoxyphenyl)-1H-1,2,4-triazol-3-yl]methyl]benzamide was prepared prior to each dosing in 2% labrasol dissolved in Milli-Q water. […] For each individual animal of vehicle group TGI % was calculated based on the tumor growth inhibition of individual tumor at each given day of the study compared to the average of the group for that given day of the study. The P value was calculated for each group that was treated with 2-(difluoromethoxy)-N-[[5-(2-methoxyphenyl)-1H-1,2,4-triazol-3-yl]methyl]benzamide for each given day of the study by comparing the TGI of that day to the TGI of the vehicle group. […] P value was calculated by excel program using two-tailed distribution and two-sample equal variance (homoscedastic). ns P>0.05; * P<0.05; ** P<0.01; *** P<0.001; **** P<0.0001.

UBE2K = target: T1, UBE2K (Homo sapiens, UniProt P61086); settings: poly-ubiquitination assays, FIG. 2 of U.S. Pat. No. 11,091,447; cited from earlier work
T1 sequence (P61086 1-200): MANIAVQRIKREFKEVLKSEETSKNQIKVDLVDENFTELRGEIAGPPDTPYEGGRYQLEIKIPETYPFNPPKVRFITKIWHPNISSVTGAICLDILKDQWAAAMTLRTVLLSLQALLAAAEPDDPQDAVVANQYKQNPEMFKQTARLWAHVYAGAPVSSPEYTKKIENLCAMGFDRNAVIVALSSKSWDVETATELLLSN

SNU5 tumors = experiment: Gastric carcinoma xenograft model: SNU-5 tumors in nude mice, tumor growth inhibition; type: in vivo; settings: SNU-5 xenograft
Protocol: SNU-5 is derived from ascites of a patient with poorly differentiated carcinoma of the stomach. The patient had previously received chemotherapy including 5-fluorouracil, doxorubicin and mitomycin-C. This cell line is derived from metastatic site, ascites.
SNU-5 cell lines were implanted subcutaneously in nude mice. Tumors were allowed to grow. Once the average tumor volume reached the volume of 122 mm3, animals were randomized into three groups of vehicle control, 75 mg/kg and 150 mg/kg 2-(difluoromethoxy)-N-[[5-(2-methoxyphenyl)-1H-1,2,4-triazol-3-yl]methyl]benzamide with 12 animals per group. Methocel E3 Premium LV in Milli-Q water was used for vehicle control. A solid dispersion of 2-(difluoromethoxy)-N-[[5-(2-methoxyphenyl)-1H-1,2,4-triazol-3-yl]methyl]benzamide was prepared prior to each dosing in Milli-Q water. 2-(difluoromethoxy)-N-[[5-(2-methoxyphenyl)-1H-1,2,4-triazol-3-yl]methyl]benzamide was administered by oral gavage two times a day (BID). In this study there were 12 animals per each group. […] Animals that left the study prior to day 23 were eliminated from all calculations. The percentage of tumor growth inhibition (TGI %) was calculated for each individual tumor. The mean tumor volume of each group over time and the growth of tumor in each individual animal is plotted below. For each individual animal of vehicle group TGI % was calculated based on the tumor growth inhibition of individual tumor at each given day of the study compared to the average of the group for that given day of the study. The P value was calculated for each group that was treated with 2-(difluoromethoxy)-N-[[5-(2-methoxyphenyl)-1H-1,2,4-triazol-3-yl]methyl]benzamide for each given day of the study by comparing the TGI of that day to the TGI of the vehicle group. This P value is different than what is provided in the CRO report which is the P value related to tumor volume not TGI %. P value was calculated by excel program using two-tailed distribution and two-sample equal variance (homoscedastic). ns P>0.05; * P<0.05; ** P<0.01; *** P<0.001; **** P<0.0001.

For `COc1ccccc1-c1nc(CNC(=O)c2ccccc2OC(F)F)n[nH]1` [2-(difluoromethoxy)-N-[[5-(2-methoxyphenyl)-1H-1,2,4-triazol-3-yl]methyl]benzamide], the “HS746T tumor growth inhibition (TGI)” value (HS746T tumors; 150 mg/kg in nude mice (summary, FIG. 1)) was “more than 70%”, the “% Tumor Growth Inhibition (% TGI)” value (HS746T tumors; 75 mg/kg oral BID, day 3) was 47.2% and the “% Tumor Growth Inhibition (% TGI)” value (HS746T tumors; 75 mg/kg oral BID, day 5) was 45.9%. For the same compound, the “% Tumor Growth Inhibition (% TGI)” value (HS746T tumors; 75 mg/kg oral BID, day 8) was 46.3%, the “% Tumor Growth Inhibition (% TGI)” value (HS746T tumors; 75 mg/kg oral BID, day 10) was 46.3% and the “% Tumor Growth Inhibition (% TGI)” value (HS746T tumors; 75 mg/kg oral BID, day 12) was 36.8%. For the same compound, the “% Tumor Growth Inhibition (% TGI)” value (HS746T tumors; 75 mg/kg oral BID, day 15) was 35.7%, the “tumor growth inhibition, mixed effect linear model of the tumor volumes on the last day of study” value (“tumor growth inhibition … of study” for short) (HS746T tumors; 75 mg/kg oral BID) was 60.3% and the “% Tumor Growth Inhibition (% TGI)” value (HS746T tumors; 100 mg/kg oral BID, day 3) was 65.8%. The “% Tumor Growth Inhibition (% TGI)” value (HS746T tumors; 100 mg/kg oral BID, day 5) was 56.2%, the “% Tumor Growth Inhibition (% TGI)” value (HS746T tumors; 100 mg/kg oral BID, day 8) was 57.7% and the “% Tumor Growth Inhibition (% TGI)” value (HS746T tumors; 100 mg/kg oral BID, day 10) was 59.4%. The “% Tumor Growth Inhibition (% TGI)” value (HS746T tumors; 100 mg/kg oral BID, day 12) was 49.3%, the “% Tumor Growth Inhibition (% TGI)” value (HS746T tumors; 100 mg/kg oral BID, day 15) was 52.4% and the “tumor growth inhibition … of study” value (HS746T tumors; 100 mg/kg oral BID) was 71.2%. The “% Tumor Growth Inhibition (% TGI)” value (HS746T tumors; 150 mg/kg oral BID, day 3) was 98.3%, the “% Tumor Growth Inhibition (% TGI)” value (HS746T tumors; 150 mg/kg oral BID, day 5) was 93.1% and the “% Tumor Growth Inhibition (% TGI)” value (HS746T tumors; 150 mg/kg oral BID, day 8) was 89.8%. For the same compound, the “% Tumor Growth Inhibition (% TGI)” value (HS746T tumors; 150 mg/kg oral BID, day 10) was 84.2%, the “% Tumor Growth Inhibition (% TGI)” value (HS746T tumors; 150 mg/kg oral BID, day 12) was 72.9% and the “% Tumor Growth Inhibition (% TGI)” value (HS746T tumors; 150 mg/kg oral BID, day 15) was 74.3%. The “tumor growth inhibition … of study” value (HS746T tumors; 150 mg/kg oral BID) was 85.3%, the “effect on body weight” value [1] was “without any significant effect on body weight” and the “cyclinB1 in tumor tissues” value [2] was “dose-dependent increase”. For the same compound, the “phosphor histone H3 in tumor tissues” value [2] was “dose-dependent increase”, the “cyclin B1 in tumor tissues” value [3] was “dose dependent increase; also recorded: dose-dependent increase” and the “phosphor histone H3 in tumor tissues” value [3] was “dose dependent increase; also recorded: dose-dependent increase”. The “effect on body weight” value [4] was “without any significant effect on body weight”, the “effect on mono-ubiquitinated UBE2K” value (UBE2K) was “stabilize mono-ubiquitinated UBE2K” and the “% Tumor Growth Inhibition (% TGI)” value (SNU5 tumors; 75 mg/kg oral BID, day 2) was 79%. For the same compound, the “% Tumor Growth Inhibition (% TGI)” value (SNU5 tumors; 75 mg/kg oral BID, day 5) was 41%, the “% Tumor Growth Inhibition (% TGI)” value (SNU5 tumors; 75 mg/kg oral BID, day 7) was 36% and the “% Tumor Growth Inhibition (% TGI)” value (SNU5 tumors; 75 mg/kg oral BID, day 9) was 49%. For the same compound, the “% Tumor Growth Inhibition (% TGI)” value (SNU5 tumors; 75 mg/kg oral BID, day 12) was 51%, the “% Tumor Growth Inhibition (% TGI)” value (SNU5 tumors; 75 mg/kg oral BID, day 14) was 47% and the “% Tumor Growth Inhibition (% TGI)” value (SNU5 tumors; 75 mg/kg oral BID, day 16) was 56%. The “% Tumor Growth Inhibition (% TGI)” value (SNU5 tumors; 75 mg/kg oral BID, day 19) was 47%, the “% Tumor Growth Inhibition (% TGI)” value (SNU5 tumors; 75 mg/kg oral BID, day 21) was 40% and the tumor growth inhibition (SNU5 tumors; 150 mg/kg oral BID (FIG. 3)) was 64%. For the same compound, the “% Tumor Growth Inhibition (% TGI)” value (SNU5 tumors; 150 mg/kg oral BID, day 2) was 129%, the “% Tumor Growth Inhibition (% TGI)” value (SNU5 tumors; 150 mg/kg oral BID, day 5) was 70% and the “% Tumor Growth Inhibition (% TGI)” value (SNU5 tumors; 150 mg/kg oral BID, day 7) was 58%. The “% Tumor Growth Inhibition (% TGI)” value (SNU5 tumors; 150 mg/kg oral BID, day 9) was 64%, the “% Tumor Growth Inhibition (% TGI)” value (SNU5 tumors; 150 mg/kg oral BID, day 12) was 63% and the “% Tumor Growth Inhibition (% TGI)” value (SNU5 tumors; 150 mg/kg oral BID, day 14) was 54%. For the same compound, the “% Tumor Growth Inhibition (% TGI)” value (SNU5 tumors; 150 mg/kg oral BID, day 16) was 64%, the “% Tumor Growth Inhibition (% TGI)” value (SNU5 tumors; 150 mg/kg oral BID, day 19) was 52% and the “% Tumor Growth Inhibition (% TGI)” value (SNU5 tumors; 150 mg/kg oral BID, day 21) was 49%.
